From ChEMBL document CHEMBL2007661, “Compounds: GSK PKIS; Assays: UNC Frye lab” (2012)
Values joined by “and” are separate entries in the source; they are usually repeats but may differ in a detail not shown here. Equal values may be shown once.

Legend:
[1] = molecular target: T1, Inhibitor of nuclear factor kappa-B kinase subunit alpha (Homo sapiens) (UniProt O15111); conditions: at 1 µM
T1 sequence (whole entry): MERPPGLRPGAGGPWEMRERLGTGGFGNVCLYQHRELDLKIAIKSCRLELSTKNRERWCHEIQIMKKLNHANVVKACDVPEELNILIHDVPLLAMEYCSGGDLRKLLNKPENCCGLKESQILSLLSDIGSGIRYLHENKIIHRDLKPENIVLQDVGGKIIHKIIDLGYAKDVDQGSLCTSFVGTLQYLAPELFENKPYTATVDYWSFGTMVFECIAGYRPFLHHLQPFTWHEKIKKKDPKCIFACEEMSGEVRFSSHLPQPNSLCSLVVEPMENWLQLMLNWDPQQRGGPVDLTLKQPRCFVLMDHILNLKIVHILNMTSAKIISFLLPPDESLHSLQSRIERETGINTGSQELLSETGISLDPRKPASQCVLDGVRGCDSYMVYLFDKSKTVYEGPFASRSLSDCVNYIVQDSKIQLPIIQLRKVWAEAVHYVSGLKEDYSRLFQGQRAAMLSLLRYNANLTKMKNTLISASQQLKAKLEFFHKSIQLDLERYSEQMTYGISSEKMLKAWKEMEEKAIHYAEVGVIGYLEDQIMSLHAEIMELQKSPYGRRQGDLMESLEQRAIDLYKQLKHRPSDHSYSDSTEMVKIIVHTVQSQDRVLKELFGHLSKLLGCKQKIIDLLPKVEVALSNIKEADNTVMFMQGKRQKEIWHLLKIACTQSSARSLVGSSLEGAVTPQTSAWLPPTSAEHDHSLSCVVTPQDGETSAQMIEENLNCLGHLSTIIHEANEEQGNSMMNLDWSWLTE

[2] = molecular target: T2, Tyrosine-protein kinase Mer (Homo sapiens) (UniProt Q12866); conditions: at 10 µM
T2 sequence (whole entry): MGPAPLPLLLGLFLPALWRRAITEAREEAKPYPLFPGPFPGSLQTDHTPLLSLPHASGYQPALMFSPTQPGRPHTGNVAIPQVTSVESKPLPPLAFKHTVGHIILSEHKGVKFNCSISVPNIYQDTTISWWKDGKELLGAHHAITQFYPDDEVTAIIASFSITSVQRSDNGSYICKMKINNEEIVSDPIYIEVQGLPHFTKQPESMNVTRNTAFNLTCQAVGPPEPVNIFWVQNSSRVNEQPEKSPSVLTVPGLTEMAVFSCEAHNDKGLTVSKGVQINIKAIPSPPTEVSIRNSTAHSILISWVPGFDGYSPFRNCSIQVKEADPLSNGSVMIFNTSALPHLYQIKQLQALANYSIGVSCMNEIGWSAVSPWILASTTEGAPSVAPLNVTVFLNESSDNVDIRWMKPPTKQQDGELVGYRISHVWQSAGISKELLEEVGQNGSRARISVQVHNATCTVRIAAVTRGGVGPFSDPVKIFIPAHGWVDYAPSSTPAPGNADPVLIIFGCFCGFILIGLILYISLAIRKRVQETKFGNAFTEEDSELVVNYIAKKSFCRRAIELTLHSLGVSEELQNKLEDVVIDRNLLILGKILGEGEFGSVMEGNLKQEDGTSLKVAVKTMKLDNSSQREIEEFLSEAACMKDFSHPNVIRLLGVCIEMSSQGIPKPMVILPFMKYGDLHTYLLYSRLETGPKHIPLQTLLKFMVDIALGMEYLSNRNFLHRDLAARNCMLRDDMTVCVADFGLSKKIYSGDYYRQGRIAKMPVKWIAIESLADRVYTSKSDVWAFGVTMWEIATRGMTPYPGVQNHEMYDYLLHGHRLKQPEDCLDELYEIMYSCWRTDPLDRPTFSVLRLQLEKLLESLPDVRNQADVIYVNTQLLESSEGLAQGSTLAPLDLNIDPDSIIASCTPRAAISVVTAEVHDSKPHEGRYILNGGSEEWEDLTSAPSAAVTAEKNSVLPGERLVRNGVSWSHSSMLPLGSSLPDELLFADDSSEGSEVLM

[3] = molecular target: T3, Serine/threonine-protein kinase TBK1 (Homo sapiens) (UniProt Q9UHD2); conditions: at 1 µM
T3 sequence (whole entry): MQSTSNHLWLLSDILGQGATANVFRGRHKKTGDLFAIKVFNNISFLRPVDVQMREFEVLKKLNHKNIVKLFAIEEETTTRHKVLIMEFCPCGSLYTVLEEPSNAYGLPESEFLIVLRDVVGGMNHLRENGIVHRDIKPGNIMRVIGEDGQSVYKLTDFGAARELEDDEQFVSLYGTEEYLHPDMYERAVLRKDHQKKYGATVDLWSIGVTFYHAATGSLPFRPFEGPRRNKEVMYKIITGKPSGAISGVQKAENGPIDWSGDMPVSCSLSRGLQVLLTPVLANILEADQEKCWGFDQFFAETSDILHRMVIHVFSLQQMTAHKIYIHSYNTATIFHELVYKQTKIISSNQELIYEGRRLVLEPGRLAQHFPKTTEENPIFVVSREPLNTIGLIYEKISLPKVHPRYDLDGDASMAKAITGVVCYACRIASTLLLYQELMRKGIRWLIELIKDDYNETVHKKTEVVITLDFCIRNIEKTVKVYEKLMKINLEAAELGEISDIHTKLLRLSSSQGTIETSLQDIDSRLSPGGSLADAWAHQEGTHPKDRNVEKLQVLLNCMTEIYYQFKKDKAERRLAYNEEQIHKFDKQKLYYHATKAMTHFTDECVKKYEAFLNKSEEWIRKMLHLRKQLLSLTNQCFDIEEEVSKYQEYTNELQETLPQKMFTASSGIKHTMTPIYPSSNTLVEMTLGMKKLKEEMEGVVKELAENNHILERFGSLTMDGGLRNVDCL

SMILES | inhibition [1] | inhibition [2] | inhibition [3]
Cc1cccc(Nc2ncc(-c3ccccc3)o2)c1 | -1% and -2% | 38% | 1% and 4%
COc1cc2ncn(-c3cc(OCc4ccccc4C(F)(F)F)c(C(N)=O)s3)c2cc1OC | 2% and 0% | 10% | 12%
O=C(Nc1n[nH]c2cc(-c3ccc(F)cc3)ccc12)C1CC1 | 2% and 12% | 86% | 2% and 4%
NS(=O)(=O)c1ccc(N/N=C2\C(=O)Nc3ccc4ncccc4c32)cc1 | 4% and -7% | -1% | 76% and 77%
O=C(Nc1n[nH]c2nc(-c3ccco3)c(Br)cc12)C1CC1 | 85% | 83% | 18% and 25%
O=C1Nc2ccccc2/C1=C/Nc1ccc2[nH]c(=O)[nH]c2c1 | 1% | -2% | 30% and 27%
O=C(Nc1n[nH]c2cc(-c3ccccc3)ccc12)C1CC1 | 9% and -2% | -4% | 2% and 0%
CS(=O)(=O)CCNCc1ccoc1-c1ccc2ncnc(Nc3ccc(OCc4ccccc4)cc3)c2c1 | -2% | 88% | 5% and 2%

More lines, now with the values ahead:

inhibition [1] | inhibition [2] | inhibition [3] | SMILES
1% | 1% | -2% and -4% | CN(C)CCNC(=O)Nc1ccc(N(C)c2ccnc(Nc3ccc(CS(C)(=O)=O)cc3)n2)cc1
2% | 3% | -1% | Oc1cccc(-c2nc(-c3ccccc3)[nH]c2-c2ccncc2)c1
19% and 13% | -5% | -5% | Fc1ccc(Nc2nccc(-c3c(-c4ccc(C(F)(F)F)cc4)nn4ncccc34)n2)cc1F
2% | 57% | -2% and -5% | OCCCNc1nccc(-c2c(-c3ccc(F)cc3)nn3cc(C(F)(F)F)ccc23)n1
-5% and -4% | 3% | 5% and 4% | NC(=O)c1ccc(Oc2nccc(-c3c(-c4ccc(F)cc4)ncn3C3CCNCC3)n2)cc1
3% and 2% | 31% | 0% and 3% | Fc1ccc(-c2ncn(C3CCNCC3)c2-c2ccnc(Oc3ccccc3)n2)cc1
